Measured values published in ChEMBL document CHEMBL1130705, “Synthesis and antiplatelet effects of an isoxazole series of glycoprotein IIb/IIIa antagonists” (Bioorg Med Chem Lett, 1998).

Key:
Homo sapiens [1] = species: Homo sapiens; experiment: Compound was tested for inhibition of ADP induced platelet aggregation by using human platelet rich plasma (PRP) assay; type: functional
Homo sapiens [2] = species: Homo sapiens; experiment: Compound was tested for inhibition of ADP induced platelet aggregation by using human platelet rich plasma(PRP) assay; type: functional

IC50 (Homo sapiens [1]) [nM] | IC50 (Homo sapiens [2]) [nM] | SMILES
200 | – | CCCCOC(=O)N[C@@H](CNC(=O)c1cc(OCC2CCN(C(=N)N)CC2)no1)C(=O)OC
– | 60 | CCCCOC(=O)N[C@@H](CNC(=O)c1cc(OCc2ccc(C(=N)N)cc2)no1)C(=O)O
– | 50 | CCCCOC(=O)N[C@@H](CNC(=O)c1cc(OCc2ccc(C(=N)N)cc2)no1)C(=O)OC
– | 32 | CCCCOC(=O)N[C@@H](CNC(=O)c1cccc(COc2ccc(C(=N)N)cc2)c1)C(=O)OC
